Assay results reported in ChEMBL document CHEMBL1201862, “PubChem BioAssay data set” (2004).
Active and inactive are the calls of the source.

Experiments:
Streptokinase A = target: T1, Streptokinase A (Streptococcus pyogenes serotype M1, UniProt P10520); experiment: S. pyogenes streptokinase expression inhibitors, potency, dose response, plasminogen activation absorbance, OD405 (AID 1914); assay type: functional, Streptococcus pyogenes M1 GAS;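 note: secreted streptokinase activity via plasminogen activation per viability signal from cell pellet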
T1 sequence (P10520 whole entry): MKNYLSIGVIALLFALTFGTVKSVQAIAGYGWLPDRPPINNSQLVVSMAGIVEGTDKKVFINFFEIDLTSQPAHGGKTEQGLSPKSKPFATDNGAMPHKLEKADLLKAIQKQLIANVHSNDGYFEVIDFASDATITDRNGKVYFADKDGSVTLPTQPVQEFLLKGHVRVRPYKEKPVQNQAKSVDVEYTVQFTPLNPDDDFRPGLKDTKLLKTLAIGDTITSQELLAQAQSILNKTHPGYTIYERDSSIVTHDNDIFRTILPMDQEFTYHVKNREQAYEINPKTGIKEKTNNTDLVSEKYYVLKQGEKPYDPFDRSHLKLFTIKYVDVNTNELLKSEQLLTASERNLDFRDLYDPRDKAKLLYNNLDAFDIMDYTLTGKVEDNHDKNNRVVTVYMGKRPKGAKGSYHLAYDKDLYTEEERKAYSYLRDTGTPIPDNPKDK

Streptococcus = experiment: Group A Streptococcus viability loss, dose response, counter-screen for streptokinase expression inhibitor project, luminescence, BacTiterGlo (AID 1915); assay type: functional, organism-based;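 note: potency for reduction of bacterial viability or growth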
[1] = tested on: Streptococcus sp. 'group A'; experiment: growth inhibition of control SK(-) GAS strain, dose response, counter-screen for streptokinase expression inhibitor project, luminescence, kanamycin, BacTiterGlo, confirmation (AID 1900); assay type: functional, organism-based
[2] = Luminescence Cell-Based Dose Response HTS to Identify Activators of Luciferase Translation or Activity in H4 […] Cells. [Related pubchem assays: 1829 (Project Summary), 1814 (Primary HTS)]; assay type: functional
H4 = experiment: Luminescence Cell-Based Dose Response HTS to Identify Activators of 5'UTR Stem-Loop Driven Prion Protein mRNA Translation in H4 Neuroglioblastoma Cells. [Related pubchem assays: 1829 (Project Summary), 1814 (Primary HTS)]; assay type: functional; details: Homo sapiens
[3] = Luminescence Cell-Based Dose Confirmation HTS to Identify Activators of 5'UTR Stem-Loop Driven Alpha-Synuclein mRNA Translation in H4 Neuroglioblastoma Cells. [Related pubchem assays: 1829 (Project Summary), 1814 (Primary HTS)]; assay type: functional
Cytochrome P450 2D6 = Cytochrome P450 2D6 (Homo sapiens, UniProt P10635);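 note: CYP2D6 member of a cytochrome P450 panel assay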
Cytochrome P450 2C19 = Cytochrome P450 2C19 (Homo sapiens, UniProt P33261); experiment: Cytochrome panel assay with activity outcomes. Panel member name: p450-cyp2c19 Compounds with AC50 equal or less than 10 uM are considered active; assay type: functional; details: read-out: AC50
[4] = target: T2, Corticotropin-releasing factor receptor 2/Corticotropin-releasing factor-binding protein (Homo sapiens, UniProt P24387+Q13324); experiment: activators of CRF receptor 2 with binding protein – uHTS hits, confirmation (AID 602473); assay type: functional; details: read-out: EC50_Mean
T2 sequence (Q13324 whole entry): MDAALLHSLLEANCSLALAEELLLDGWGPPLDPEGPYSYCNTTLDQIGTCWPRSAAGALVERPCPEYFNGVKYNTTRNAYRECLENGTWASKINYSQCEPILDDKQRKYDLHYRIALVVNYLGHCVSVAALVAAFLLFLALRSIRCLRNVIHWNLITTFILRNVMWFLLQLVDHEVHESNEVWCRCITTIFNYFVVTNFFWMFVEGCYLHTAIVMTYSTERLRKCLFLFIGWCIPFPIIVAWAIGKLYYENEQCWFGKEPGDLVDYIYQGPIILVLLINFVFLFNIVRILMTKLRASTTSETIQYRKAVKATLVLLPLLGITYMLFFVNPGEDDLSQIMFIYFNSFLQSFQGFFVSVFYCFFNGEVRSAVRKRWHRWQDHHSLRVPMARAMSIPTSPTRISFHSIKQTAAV
T2 sequence (P24387 whole entry): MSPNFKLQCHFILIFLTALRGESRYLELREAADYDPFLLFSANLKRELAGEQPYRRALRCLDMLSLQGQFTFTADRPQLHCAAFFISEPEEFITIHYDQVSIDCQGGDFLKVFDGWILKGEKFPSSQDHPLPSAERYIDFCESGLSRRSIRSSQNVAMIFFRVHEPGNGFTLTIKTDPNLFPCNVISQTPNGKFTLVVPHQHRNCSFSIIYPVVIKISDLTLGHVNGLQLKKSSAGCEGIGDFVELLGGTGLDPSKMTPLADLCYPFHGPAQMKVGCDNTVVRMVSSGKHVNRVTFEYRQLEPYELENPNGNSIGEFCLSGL

H9c2 = experiment: cells; assay type: functional, cell-based; details: Rattus norvegicus, H9c2, Myocardium;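 note: confirmatory concentration-response retest of ultra-high-throughput screening hits for modulation of myocardial damage; cell death induced by hydrogen peroxide oxidative stress; compound pretreatment for 60 min then peroxide exposure for 2 h; potency is for protecting the cells against peroxide damage rather than for killing them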
[5] = HEp-2 cell cytotoxicity, dose response, cytotoxicity control for RSV inhibitor project, HTS (AID 2410); assay type: functional; details: human respiratory syncytial virus
[6] = cytotoxicity toward NIH3T3 fibroblasts, dose response, counter-screen, cell-based, ATP luminescence, mouse fibroblasts (AID 2010); assay type: functional;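 note: cells exposed to compound for about 90 hours before reading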
[7] = Luminescence Cell-Based Dose Retest to Confirm Inhibitors of Cancer Stem Cells. [Related pubchem assays (depositor defined):AID2717, AID2721]; assay type: functional; details: Homo sapiens
[8] = inhibitors of intracellular T. cruzi replication, confirmation, NIH3T3 host cells, beta-gal luminescence (AID 2044); assay type: functional, cell-based;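 note: intracellular parasites grown in NIH/3T3 mouse fibroblasts as host cells; luminescent beta-galactosidase reporter signal from transgenic T. cruzi replicating inside host cells; inhibitors lower the luminescence signal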
Paired box protein Pax-8 = Paired box protein Pax-8 (Homo sapiens, UniProt Q06710); experiment: inhibitors of PAX8-driven TPO luciferase reporter, dose response, RMG-I cells, cherry-pick (AID 687027); assay type: functional, cell-based;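 note: luciferase reporter driven by Pax8 target thyroperoxidase promoter measured by SteadyGlo luminescence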
Cytochrome P450 1A2 = target: T3, Cytochrome P450 1A2 (Homo sapiens, UniProt P05177);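 note: PubChem cytochrome P450 panel assay, CYP1A2 panel member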
T3 sequence (P05177 whole entry): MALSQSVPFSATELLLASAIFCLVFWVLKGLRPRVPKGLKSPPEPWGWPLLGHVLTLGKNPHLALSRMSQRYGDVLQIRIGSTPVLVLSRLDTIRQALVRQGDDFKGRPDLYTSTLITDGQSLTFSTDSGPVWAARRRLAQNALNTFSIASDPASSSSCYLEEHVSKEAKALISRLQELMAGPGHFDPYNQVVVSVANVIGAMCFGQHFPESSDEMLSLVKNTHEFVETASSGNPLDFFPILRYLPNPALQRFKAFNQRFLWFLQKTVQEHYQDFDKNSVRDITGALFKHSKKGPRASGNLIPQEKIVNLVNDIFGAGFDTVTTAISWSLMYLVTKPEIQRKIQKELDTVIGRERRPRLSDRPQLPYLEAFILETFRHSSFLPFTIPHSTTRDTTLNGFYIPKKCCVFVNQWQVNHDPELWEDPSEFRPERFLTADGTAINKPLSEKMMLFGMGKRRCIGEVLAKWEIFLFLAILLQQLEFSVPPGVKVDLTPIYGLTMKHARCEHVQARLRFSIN

Cytochrome P450 2C9 = Cytochrome P450 2C9 (Homo sapiens, UniProt P11712)
[9] = target: T4, Ubiquitin-conjugating enzyme E2 N (Homo sapiens, UniProt P61088); assay type: functional;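 note: Dose-response confirmation in a TR-FRET assay detecting UBC13-driven polyubiquitin chain formation, inhibition measured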
T4 sequence (P61088 whole entry): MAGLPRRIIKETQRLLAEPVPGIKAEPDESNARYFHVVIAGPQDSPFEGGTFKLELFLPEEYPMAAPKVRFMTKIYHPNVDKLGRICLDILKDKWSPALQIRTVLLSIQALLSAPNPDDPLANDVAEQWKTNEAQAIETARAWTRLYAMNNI

Cytochrome P450 3A4 = Cytochrome P450 3A4 (Homo sapiens, UniProt P08684);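 note: CYP3A4 tested as one member of a cytochrome P450 panel screen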
Sequence of Cytochrome P450 3A4 (P08684 whole entry): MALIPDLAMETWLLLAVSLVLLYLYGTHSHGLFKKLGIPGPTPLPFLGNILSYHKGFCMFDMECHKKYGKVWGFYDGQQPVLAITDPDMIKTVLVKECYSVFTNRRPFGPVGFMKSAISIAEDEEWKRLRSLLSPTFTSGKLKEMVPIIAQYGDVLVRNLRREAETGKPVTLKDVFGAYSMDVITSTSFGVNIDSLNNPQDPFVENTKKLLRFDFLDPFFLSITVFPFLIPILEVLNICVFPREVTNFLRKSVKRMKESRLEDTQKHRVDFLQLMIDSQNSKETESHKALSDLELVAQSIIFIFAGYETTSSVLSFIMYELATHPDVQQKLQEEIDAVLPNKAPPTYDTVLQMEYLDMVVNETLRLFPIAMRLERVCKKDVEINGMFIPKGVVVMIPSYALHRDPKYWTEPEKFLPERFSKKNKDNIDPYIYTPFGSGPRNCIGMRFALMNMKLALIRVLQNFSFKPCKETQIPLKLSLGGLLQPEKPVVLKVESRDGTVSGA

Sequence of Cytochrome P450 2C9 (P11712 whole entry): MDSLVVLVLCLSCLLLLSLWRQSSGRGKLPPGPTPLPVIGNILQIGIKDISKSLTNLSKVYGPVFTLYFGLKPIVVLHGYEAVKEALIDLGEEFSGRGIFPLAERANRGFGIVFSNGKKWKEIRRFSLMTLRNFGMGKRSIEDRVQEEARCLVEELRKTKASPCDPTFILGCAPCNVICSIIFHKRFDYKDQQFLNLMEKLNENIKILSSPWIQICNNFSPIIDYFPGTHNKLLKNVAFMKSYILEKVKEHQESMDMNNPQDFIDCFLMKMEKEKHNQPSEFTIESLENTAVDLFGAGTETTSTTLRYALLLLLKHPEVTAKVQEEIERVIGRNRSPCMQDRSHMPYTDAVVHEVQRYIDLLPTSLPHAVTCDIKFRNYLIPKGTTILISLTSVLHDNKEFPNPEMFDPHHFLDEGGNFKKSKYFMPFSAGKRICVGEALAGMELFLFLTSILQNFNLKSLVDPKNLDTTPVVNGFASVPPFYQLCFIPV
Sequence of Cytochrome P450 2D6 (P10635 whole entry): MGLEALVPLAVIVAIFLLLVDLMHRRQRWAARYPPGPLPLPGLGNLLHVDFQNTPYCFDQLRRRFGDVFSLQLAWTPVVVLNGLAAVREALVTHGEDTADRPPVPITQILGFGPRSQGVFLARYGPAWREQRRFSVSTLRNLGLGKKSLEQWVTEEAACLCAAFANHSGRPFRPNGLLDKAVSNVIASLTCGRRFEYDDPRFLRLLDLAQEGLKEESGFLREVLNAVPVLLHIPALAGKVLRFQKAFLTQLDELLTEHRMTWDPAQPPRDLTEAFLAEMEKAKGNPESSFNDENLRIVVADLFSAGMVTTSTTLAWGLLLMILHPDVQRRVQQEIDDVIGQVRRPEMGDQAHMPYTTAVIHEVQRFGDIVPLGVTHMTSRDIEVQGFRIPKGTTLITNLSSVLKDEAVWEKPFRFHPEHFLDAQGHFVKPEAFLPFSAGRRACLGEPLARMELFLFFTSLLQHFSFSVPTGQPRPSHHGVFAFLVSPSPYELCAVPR
Sequence of Paired box protein Pax-8 (Q06710 whole entry): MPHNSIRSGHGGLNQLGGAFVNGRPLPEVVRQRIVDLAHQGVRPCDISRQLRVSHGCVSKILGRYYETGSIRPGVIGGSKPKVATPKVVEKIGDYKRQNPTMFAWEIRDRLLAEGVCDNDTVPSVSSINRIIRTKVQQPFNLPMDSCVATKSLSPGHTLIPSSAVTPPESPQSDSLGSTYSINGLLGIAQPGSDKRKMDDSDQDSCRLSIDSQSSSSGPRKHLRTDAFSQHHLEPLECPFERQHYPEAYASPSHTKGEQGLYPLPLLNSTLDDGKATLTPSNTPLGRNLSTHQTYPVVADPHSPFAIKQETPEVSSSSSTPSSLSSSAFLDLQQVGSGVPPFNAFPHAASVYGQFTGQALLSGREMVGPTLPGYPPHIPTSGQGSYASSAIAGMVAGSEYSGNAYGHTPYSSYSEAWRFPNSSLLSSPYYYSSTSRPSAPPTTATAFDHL
Sequence of Cytochrome P450 2C19 (P33261 whole entry): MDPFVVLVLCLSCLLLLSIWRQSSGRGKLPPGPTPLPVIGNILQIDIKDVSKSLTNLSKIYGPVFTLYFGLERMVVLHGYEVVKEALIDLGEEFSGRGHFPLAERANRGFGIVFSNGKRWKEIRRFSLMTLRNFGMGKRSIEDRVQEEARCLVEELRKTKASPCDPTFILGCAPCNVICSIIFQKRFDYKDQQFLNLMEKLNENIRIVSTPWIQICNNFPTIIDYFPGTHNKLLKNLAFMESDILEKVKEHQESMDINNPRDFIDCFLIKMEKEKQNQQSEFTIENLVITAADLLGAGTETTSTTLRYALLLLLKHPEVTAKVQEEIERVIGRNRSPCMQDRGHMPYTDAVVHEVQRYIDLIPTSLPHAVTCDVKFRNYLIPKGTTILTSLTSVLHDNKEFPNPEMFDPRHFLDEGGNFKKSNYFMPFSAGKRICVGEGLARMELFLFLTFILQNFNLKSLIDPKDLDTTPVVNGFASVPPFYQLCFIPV

COc1ccc(-n2c(O)cc(=O)nc2SCC(=O)Nc2ccccc2)cc1
EC50 (Streptokinase A): > 150 µM (not active) | EC50 (Streptococcus): > 150 µM (not active) | EC50 [1]: 67.3 µM (active)

COc1cc(OC)cc(C(=O)Nc2cccc(-c3ccc(N4CCOCC4)nn3)c2)c1
EC50 (Streptokinase A): > 150 µM (not active) | EC50 (Streptococcus): > 150 µM (not active) | EC50 [1]: > 150 µM (not active)

Cc1ccc(-c2cc3nc(-c4ccccc4)cc(N)n3n2)cc1
EC50 [2]: 0.812 µM (active) | EC50 (H4): > 120 µM (not active) | EC50 [3]: 0.163 µM (active)

COc1ccc(-n2c(=O)cnc3cnc(Oc4cccc(Cl)c4)nc32)cc1
AC50 (Cytochrome P450 2D6): 39.8 µM (inconclusive) | AC50 (Cytochrome P450 2C19): 15.8 µM (inconclusive)

Cc1nc(-c2ccc(Cl)cc2)sc1C1(C)CC(c2ccccc2)=NO1 (configuration not stated)
EC50 [2]: 9.8 µM (active) | EC50 (H4): 31.3 µM (active) | EC50 [3]: 7.51 µM (active)

COc1ccc(C(=O)C(OC(=O)c2ccccc2)c2ccccc2)cc1 (configuration not stated)
EC50 [2]: 30.5 µM (active) | EC50 (H4): 6.4 µM (active) | EC50 [3]: 10.7 µM (active)

C[C@]12CCC(O)CC1CCC1C2CC[C@]2(C)C(c3cc(C(F)(F)F)n[nH]3)CCC12 (some centres not stated)
EC50 [4]: 11.1 µM (active) | EC50 (Streptokinase A): 4.19 µM (active)

COc1cccc(CC(=O)OCC(=O)Nc2nnc(-c3ccccc3)o2)c1
EC50 (Streptokinase A): > 150 µM (not active) | EC50 (Streptococcus): > 150 µM (not active) | EC50 [1]: 7.82 µM (active)

Cc1ccc(Nc2ncnc3sc(C)c(C)c23)cc1
EC50 [2]: 19.5 µM (active) | EC50 (H4): 26.3 µM (active) | EC50 [3]: 18.1 µM (active)

CC1Nc2ncnc(N3CCN(c4ccccc4)CC3)c2N(Cc2ccc(Cl)cc2)C1=O (configuration not stated)
IC50 (H9c2): > 79 µM (inactive) | CC50 [5]: 26.4 µM (active)

CC(=O)N(C)c1ccc(NC(S)=Nc2cccc3ccccc23)cc1
EC50 [2]: 29.5 µM (active) | EC50 (H4): 30.7 µM (active) | EC50 [3]: 15.8 µM (active)

COc1cc(OC)c(NC(=O)C2CCN(S(=O)(=O)c3ccc4c(c3)CC(C)N4C(C)=O)CC2)cc1Cl (configuration not stated)
CC50 [5]: > 50 µM (active)

C=C(C)COc1ccc(-c2nc(N)ncc2Oc2ccc(OC)cc2)c(O)c1
EC50 (Streptokinase A): > 150 µM (not active) | EC50 (Streptococcus): > 150 µM (not active) | EC50 [1]: 47.6 µM (active)

O=C1[C@@H]2Cc3c([nH]c4ccccc34)C(c3cccc(Br)c3)N2C(=O)CN1C1CCN(Cc2ccccc2)CC1 (some centres not stated)
EC50 [6]: 9.95 µM (active) | AC50 [7]: 6.9 µM (active) | EC50 [8]: 1.32 µM (active) | AC50 (Paired box protein Pax-8): 12.1 µM (active)

CCc1cc2cccc(C)c2nc1SCC(=O)c1ccc(NC(C)=O)cc1
AC50 [7]: 2.94 µM (active)

C[C@]12CCC(O)CC1CCC1C2CC[C@]2(C)C(c3cc(C(F)(F)F)[nH]n3)CCC12 (some centres not stated)
CC50 [5]: 8.08 µM (active) | AC50 [7]: 1.67 µM (active) | EC50 (Streptococcus): 3.87 µM (active) | EC50 [1]: 1.17 µM (active)

COc1ccc2nc(O)c(CN(CCc3ccccc3)C(C)=O)cc2c1
AC50 (Cytochrome P450 1A2): 14.1 µM (inconclusive) | AC50 (Cytochrome P450 2D6): 14.1 µM (inconclusive) | AC50 (Cytochrome P450 2C9): 14.1 µM (inconclusive)

CCCCCCC(C)(C)c1ccc([C@@H]2C[C@H](O)CC[C@H]2CCCO)c(O)c1 [CP-55940]
AC50 [7]: 3.58 µM (active)

O=C(CCNS(=O)(=O)c1ccc2c(c1)CCC(=O)N2)NCc1ccc2c(c1)OCO2
AC50 (Cytochrome P450 2D6): 22.4 µM (inconclusive) | AC50 (Cytochrome P450 2C9): 39.8 µM (inconclusive)

COc1ccc(CCn2c(-c3ccccc3)nc3c(c(=O)c4ccccc4n3C)c2=O)cc1
EC50 [2]: 24.2 µM (inconclusive) | EC50 (H4): > 120 µM (not active) | EC50 [3]: > 120 µM (not active)

Brc1ccccc1OCCCCn1cnc2ccccc21
EC50 [2]: 16.9 µM (active) | EC50 (H4): 13 µM (inconclusive) | EC50 [3]: > 120 µM (not active)

N#Cc1nc(-c2cccc3ccccc23)oc1NCCN1CCCCC1
IC50 [9]: > 20 µM (inactive) | EC50 [2]: 12 µM (active) | EC50 (H4): > 120 µM (not active) | EC50 [3]: 12.4 µM (active)

CC(C)c1ccc(NC(=O)/C(C#N)=C/c2ccncc2)cc1
CC50 [5]: 14.5 µM (active)

N#Cc1cn(-c2ccccc2)nc1C(=O)c1ccccc1
EC50 [2]: > 120 µM (not active) | EC50 (H4): > 120 µM (not active) | EC50 [3]: > 120 µM (not active)

N#C/C(=C\c1ccc(OCc2ccccc2)cc1)C(=O)Nc1nc2c(s1)CCN(Cc1ccccc1)C2
CC50 [5]: 28.8 µM (active)

CCOC(=O)O[C@]1(C(=O)COC(=O)CC)CC[C@@H]2[C@@H]3CCC4=CC(=O)C=C[C@@]4(C)[C@H]3[C@H](O)C[C@]21C
AC50 (Cytochrome P450 2D6): 12.6 µM (inconclusive) | AC50 (Cytochrome P450 2C9): 12.6 µM (inconclusive) | AC50 (Cytochrome P450 3A4): 12.6 µM (inconclusive)
